Data reported in PMC11650737, “Developing MYC Degraders Bearing the Von Hippel–Lindau Ligand to Target the “Undruggable” MYC” (ACS Pharmacology & Translational Science, 2024).
Several values for one entry are separate records, joined by “and”; a condition that tells them apart may be missing. Identical values can stand only once. Entries after “also recorded” stand apart in the source; their conditions may differ. Like-named read-outs stand apart in the source and are kept apart here. Blank lines part the entries; values can stand above or below the molecule they belong to.

Key:
SKBR3 cells [1] = test: Cell uptake / intracellular concentration by LC-MS/MS, SKBR3; assay type: in vitro ADME, human; conditions: SKBR3, 24 h incubation with 10 μM
Protocol: (§1) Therefore, in order to better comprehend the observed activities of our degraders, following incubation of each compound with cells, the intracellular concentrations of the synthesized derivatives were evaluated in different cancer cell lines, as described previously.[28],[29] SKBR3, PC3, or A549 cells were incubated with PROTACs (at a 10 μΜ concentration) for selected time points, respectively. Upon sample treatment, compounds were extracted and analyzed by LC-MS/MS. Table 1 presents the percentage of the molecule that enters the cells after 24 h incubation at the 10 μM concentration. […] The small molecule MYCi361, used as a binding domain component of MYC, was also evaluated in the cell uptake assay (Table 1).
(§2) Cells were plated in 24-well plates at a density of 2 × 10^5 cells/well. 24 h after seeding, cells were incubated with each PROTAC (10 μΜ) for certain time points (1 h, 4 h, 8 h, and 24 h). The incubations were terminated at the selected time points by removing the medium and washing the cells twice with 1 mL cold PBS (1×) in each well in order to remove unbound PROTAC. Subsequently, the cells were lysed by adding a cold solution of ACN:H2O (3:2) and scraping off the cell monolayer. This process was done in two steps: first, 200 μL of ACN:H2O was added, the cells were scraped, and the cell lysate was collected. The second step involved the addition of an extra 100 μL of ACN:H2O, scraping, and collection of the remaining lysate. Samples were subsequently vortexed, sonicated, and centrifuged for 10 min at 13 000 rpm. The supernatants were collected, evaporated for 1 h at 55 °C, and stored at −20 °C until the day of analysis. Samples were then reconstituted in 200 μL of initial mobile phase (100% A), and the intracellular accumulation of PROTACs was determined by LC-MS/MS analysis using Warfarin as a stable internal standard and PROTAC standards for the construction of analytical standard curves.
(§3) The percentage of cell uptake was calculated as follows: [drawing 1]

PC3 cells [2] = test: Cell viability (MTT) assay, PC3; assay type: cell-based, human; conditions: for IC50: read-out: IC50 (antiproliferative effect)
Protocol: (§4) The antiproliferative activity of the synthesized compounds was tested in cell viability assays optimally set up for various cancer cell lines (results are depicted in Table 2, n = 3, average IC50 (μM) ± SD).
(§5) Cells were plated at a density of 5 × 10^3 cells per well on 96-well plates. After 24 h of incubation (37 °C, 5% CO2), the cell medium was removed, and compounds were added at selected concentrations (0.1–100 μM), followed by incubation for 72 h. Control cells were treated with 0.4% DMSO medium to match the conditions in the wells where drugs were added. After 72 h, the medium was removed, and the 3-(4,5-dimethylthiazol-2-yl)-2,5-diphenyltetrazolium bromide (MTT) solution (0.3 mg/mL in PBS) was added to cells for 3 h under no light conditions. The MTT solution was removed, and the formazan crystals were dissolved in 100 μL of DMSO. The optical density was measured at 570 nm with a reference wavelength of 690 nm using an absorbance microplate reader (SpectraMax 190, Molecular Devices, Sunnyvale, CA, USA). The half-maximal inhibitory concentration (IC50) was calculated based on a four-parameter logistic equation, generating a cell viability curve, using GraphPad Prism 6.01 (GraphPad Software, Inc.). Two concentrations of an established drug, Docetaxel (100 nM and 1 nM), were used in each experiment as a positive control. The resulting absorbance values were used instead of IC50 calculation. Each point was the result of three independent experiments performed in triplicate.

c-MYC = molecular target: T1, c-MYC (Homo sapiens, UniProt P01106); test: MYC degradation in PC3 cells, Western blot; assay type: cell-based; conditions: for MYC degradation (MYC levels by Western blot): 10 μΜ, 24 h
T1 construct: endogenous in cells; host or cells: PC3
Protocol: The ability of novel compounds to induce MYC degradation in the PC3 cell line was evaluated via a Western blot-based assay. […] A PROTAC that effectively degrades bromodomain and extra-terminal (BET) family proteins, with indirect action on MYC levels, BETd-260, was also included in these experiments as a positive control. BETd-260 was tested at a lower concentration (1 μΜ) due to its high potency.[26]
PC3 cells were used for the determination of MYC levels after treatment with the PROTACs under study. Cells (at a density of 250 000 per well) were seeded in 6-well plates for 24 h until 60% confluence. During the 24-h incubation period, cells were treated with the tested compounds (10 μΜ) and BETd-260 (1 μΜ) that was used as a positive control. For rescue experiments, cells were pretreated with the inhibitor MG-132 for 2 h, and then, the medium was removed, followed by the addition of the selected compound. After the 24-h incubation period, a cell lysis protocol was performed. The medium was removed, and the cells were rinsed with cold PBS. Lysis was induced using RIPA lysis buffer (50 mM Tris-HCl at pH 7.5, 150 mM NaCl, 5 mM Na2EDTA, 1 mM EGTA, 0.1% SDS, 1% NP-40, 0.5% sodium deoxycholate, 8 mM sodium fluoride, and 1 mM sodium orthovanadate) and protease inhibitor cocktail (Roche, UK). Total protein concentration in lysate samples was determined via performance of the Bradford assay in bovine serum albumin (BSA). Standard and unknown samples were preformulated in Coomassie blue G-250 assay reagent (Thermo Fisher Scientific, MA, USA), followed by a readout at 595 nm. Separation of the protein isolated from PC3 lysates, respectively (10 μg), with NuPAGE sample reducing agent and NuPAGE LDS sample buffer (Invitrogen, UK), was achieved via SDS-PAGE electrophoresis at 110 V for 2 h, prior to overnight transfer to the polyvinylidene difluoride (PVDF) membrane. The membranes were then blocked in 5% nonfat dry milk in Tris-buffered saline with 0.1% Tween-20 (TBST-T) for 1 h at room temperature.
Detection of MYC in PC3 cells was accomplished via immunoblot of the POI with the indicated monoclonal antibody (Cell Signaling Technology, MA, USA, catalog number #5605) at 1:1000 in TBST at […] overnight. The secondary anti-rabbit peroxidase-conjugate antibody (Cell Signaling Technology, MA, USA, catalog number #7074) was further added at 1:2000 dilution, followed by 1-h incubation at room temperature. Chemiluminescent visualization of the MYC protein bands was performed after the addition of Immobilon Crescendo Western HRP substrate (Sigma-Aldrich, Munich, Germany). For normalization of MYC concentration, GAPDH was labeled using the specific rabbit monoclonal antibody (Cell Signaling Technology, MA, USA, catalog number #5174) at 1:20000 in 5% nonfat dry milk. Protein bands were quantified with the ImageJ software.

A549 cells = test: Cell viability (MTT) assay, A549; assay type: cell-based, human; conditions: 72 h
Protocol: as §4
as §5, with “Two concentrations of an established drug, Docetaxel (100 nM and 1 nM), were used in each experiment as a positive control.” left out, “Each point was the result of three independent experiments performed in triplicate.” left out

MYC:MAX complex = test: In vitro MYC-MAX binding assay (GST pull-down); assay type: biochemical; conditions: compound 150 μM
Protocol: To assess whether the new degraders affect direct interaction of MYC with MAX, we employed a pull-down approach using recombinant proteins that correspond to the bHLHZ regions of MYC and MAX. GST-MYC, bound to glutathione sepharose beads, was incubated with the pyrazole compounds, followed by incubation with His-MAX. Finally, the complex of GST-MYC/HisMAX was eluted by the addition of excess glutathione, while the amount of the eluted complex was assessed by western blotting using anti-MAX antibodies (Figure 5).
Figure 5 Inhibition of the formation of the MYC:MAX complex by the pyrazole compounds. The indicated compounds (150 μM), or the solvent alone (DMSO, used as a control), were incubated with GST-MYC containing glutathione beads for 10 min at […], followed by incubation with His-MAX. […] The complex of GST-MYC:His-MAX was eluted by incubation of the beads with free glutathione. The amount of the eluted complex was analyzed by western blotting (presented in the inset), using anti-MAX antibodies, while the protein bands were quantified with the ImageJ software. The intensity of the bands is presented in the bar graph. […] Statistics were based on the unpaired two-tailed student’s t-test. Data are shown as mean ± SEM.
MYC–MAX complex formation assays were performed using recombinantly produced GST-MYC and His-MAX proteins, following the glutathione GST pull-down principle (Lentzaris et al., in preparation). In this assay, recombinant GST-MYC bound to glutathione beads was preincubated with the indicated compound or vehicle […]. As a negative control, empty beads, i.e., not loaded with GST-MYC, were used. The formed complex was eluted with glutathione, while the amount of bound MAX (indicating the amount of the generated complex) was assessed by Western blotting using anti-MAX antibodies (Abcam) and quantified based on the image J free software. All assays were carried out at least three independent times.

SKBR3 cells [3] = test: Cell viability (MTT) assay, SKBR3; assay type: cell-based, human
Protocol: as §4, §5

HCT116 cells = tested on: HCT116 cells; design: method as in PMID 34838332; conditions: HCT116 cells ref 13; read-out: GI50 (viability); cited from earlier work
PSN1 cells = tested on: PSN1 cells; design: method as in PMID 34838332; conditions: PSN1 cells ref 13; read-out: GI50 (viability); cited from earlier work
PC3 cells [4] = test: Cell uptake / intracellular concentration by LC-MS/MS, PC3; assay type: in vitro ADME, human; conditions: PC3, 24 h incubation with 10 μM
Protocol: as §1, §2, §3

T1 sequence (P01106 whole entry): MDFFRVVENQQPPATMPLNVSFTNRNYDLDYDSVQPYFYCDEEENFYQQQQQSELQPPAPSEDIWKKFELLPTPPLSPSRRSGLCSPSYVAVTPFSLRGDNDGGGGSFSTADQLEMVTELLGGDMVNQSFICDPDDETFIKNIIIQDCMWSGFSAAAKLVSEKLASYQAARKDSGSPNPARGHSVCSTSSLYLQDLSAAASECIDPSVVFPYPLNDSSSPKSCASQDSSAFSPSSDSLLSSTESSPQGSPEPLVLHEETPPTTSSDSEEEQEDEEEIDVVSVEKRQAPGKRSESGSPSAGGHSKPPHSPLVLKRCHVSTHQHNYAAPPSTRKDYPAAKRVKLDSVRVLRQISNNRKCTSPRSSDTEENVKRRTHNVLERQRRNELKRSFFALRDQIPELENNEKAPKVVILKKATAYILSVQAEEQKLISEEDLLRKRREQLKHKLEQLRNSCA

Uptake by cells (SKBR3 cells [1]): 16 ± 5%
IC50 (antiproliferative effect) (PC3 cells [2]; 72 h): inactive
MYC degradation (MYC levels by Western blot) (c-MYC): No particular effect
IC50 (antiproliferative effect) (A549 cells): inactive
Structure (SMILES): Cc1ncsc1-c1ccc(CNC(=O)[C@@H]2C[C@@H](O)CN2C(=O)[C@@H](NC(=O)CNC(=O)CCC(=O)NCCCOc2ccc(-c3cc(C(F)(F)F)nn3C)c(O)c2-c2cc(C(F)(F)F)cc(C(F)(F)F)c2)C(C)(C)C)cc1 [CSI95]

Structure (SMILES): Cn1nc(C(F)(F)F)cc1-c1ccc(OCCCN)c(-c2cc(C(F)(F)F)cc(C(F)(F)F)c2)c1O.O=C(O)C(F)(F)F [CSI118]
inhibition of MYC:MAX complex formation (binding of His-MAX to GST-MYC) (MYC:MAX complex): did not seem to interfere significantly; also recorded: no effect on MYC/MAX dimerization

MYC degradation (MYC levels by Western blot) (c-MYC): inactive
Structure (SMILES): Cc1ncsc1-c1ccc(CNC(=O)[C@@H]2C[C@H](O)CN2C(=O)[C@@H](NC(=O)CCCC(=O)NCCCOc2ccc(-c3cc(C(F)(F)F)nn3C)c(O)c2-c2cc(C(F)(F)F)cc(C(F)(F)F)c2)C(C)(C)C)cc1 [CSI212]
IC50 (antiproliferative effect) (PC3 cells [2]; 72 h): did not have any antiproliferative effect; also recorded: inactive
IC50 (antiproliferative effect) (SKBR3 cells [3]; 72 h): did not have any antiproliferative effect; also recorded: inactive

IC50 (PC3 cells [2]; 72 h): 23 µM and 25 µM
Structure (SMILES): CCc1ccc(/C=C2/SC(=S)NC2=O)cc1 [Compound 10058-F4, reference compound]

Structure (SMILES): CC(C)c1ccc(/C=C2\SC(=O)N(CCCCCCCCNC(=O)c3ccc4c(c3)C(=O)N(C3CCC(=O)NC3=O)C4=O)C2=O)cc1 (stereo not shown) [MDEG-541]
GI50 (HCT116 cells): 14.3 µM
GI50 (PSN1 cells): 10.7 µM

Uptake by cells (SKBR3 cells [1]): 19% and 19 ± 1%
IC50 (PC3 cells [2]; Homo sapiens, PC-3, 72 h): 8 ± 1 µM
concentration range in which MYC was degraded (c-MYC): 5–10 μΜ
IC50 (SKBR3 cells [3]; Homo sapiens, SK-BR-3, 72 h, read-out: IC50 (antiproliferative effect)): 11 ± 4 µM
Uptake by cells (PC3 cells [4]): 28% and 28 ± 5%
Structure (SMILES): Cn1nc(C(F)(F)F)cc1-c1ccc(OCc2ccc(Cl)cc2)c(-c2cc(C(F)(F)F)cc(C(F)(F)F)c2)c1O [MYCi361, reference compound]
